Test results taken from patent US8153385B2, “Target protein and target gene in drug designing and screening method” (Reverse Proteomics Research Institute Co., Ltd., priority 2004, dated 2012).

Biological target: T1, FLJ13397 clone-derived protein (CARP) (Homo sapiens, UniProt Q9H8M7)
T1 construct: A human full-length cDNA clone was expressed as a protein with an N-terminal His tag; His tag (pDEST17 Gateway vector) (N); made in house; host or cells: Escherichia coli BL21star(DE3)pLysS
T1 sequence (Q9H8M7 1-445): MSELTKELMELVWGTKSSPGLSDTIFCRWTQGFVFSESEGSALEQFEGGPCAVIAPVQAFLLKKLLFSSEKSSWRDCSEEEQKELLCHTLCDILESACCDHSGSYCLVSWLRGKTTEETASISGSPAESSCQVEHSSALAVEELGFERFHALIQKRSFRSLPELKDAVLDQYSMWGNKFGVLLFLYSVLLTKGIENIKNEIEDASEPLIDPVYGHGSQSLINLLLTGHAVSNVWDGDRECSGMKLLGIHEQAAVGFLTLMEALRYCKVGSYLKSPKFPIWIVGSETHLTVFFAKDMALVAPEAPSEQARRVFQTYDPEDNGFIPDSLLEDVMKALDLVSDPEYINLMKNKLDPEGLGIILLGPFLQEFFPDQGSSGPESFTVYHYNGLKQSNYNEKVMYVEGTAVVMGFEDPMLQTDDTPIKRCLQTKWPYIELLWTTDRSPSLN
Assay: SEC/MS (size exclusion chromatography / mass analysis) interaction analysis between FLJ13397 clone-derived protein and compounds
Format: binding

c1ccc2[nH]cnc2c1 [Benzimidazole]
spectrum intensity of the extracted mass range (compound in SEC spin column filtrate) (compound 1 μM, protein 0 μM (protein-free reference)): 2459590 | spectrum intensity of the extracted mass range (compound in SEC spin column filtrate) (compound 1 μM, protein 23.75 μM): 1627696 | spectrum intensity of the extracted mass range (compound in SEC spin column filtrate) (compound 1 μM, protein 47.5 μM): 1328076 | spectrum intensity of the extracted mass range (compound in SEC spin column filtrate) (compound 10 μM, protein 0 μM (protein-free reference)): 2937731 | spectrum intensity of the extracted mass range (compound in SEC spin column filtrate) (compound 10 μM, protein 23.75 μM): 1321952 | spectrum intensity of the extracted mass range (compound in SEC spin column filtrate) (compound 10 μM, protein 47.5 μM): 2620286 | spectrum intensity of the extracted mass range (compound in SEC spin column filtrate) (compound 100 μM, protein 0 μM (protein-free reference)): 3881633 | spectrum intensity of the extracted mass range (compound in SEC spin column filtrate) (compound 100 μM, protein 23.75 μM): 4636579 | spectrum intensity of the extracted mass range (compound in SEC spin column filtrate) (compound 100 μM, protein 47.5 μM): 4337586 | spectrum intensity of the extracted mass range (compound in SEC spin column filtrate) (compound 250 μM, protein 0 μM (protein-free reference)): 9545633 | spectrum intensity of the extracted mass range (compound in SEC spin column filtrate) (compound 250 μM, protein 23.75 μM): 10439034 | spectrum intensity of the extracted mass range (compound in SEC spin column filtrate) (compound 250 μM, protein 47.5 μM): 13446649
